Source: ChEMBL document CHEMBL3217638, “Synthetic modulators of the retinoic acid receptor-related orphan receptors” (Medchemcomm, 2013)

Target: T1, Nuclear receptor ROR-gamma (Homo sapiens, UniProt P51449)
T1 sequence (P51449 whole entry): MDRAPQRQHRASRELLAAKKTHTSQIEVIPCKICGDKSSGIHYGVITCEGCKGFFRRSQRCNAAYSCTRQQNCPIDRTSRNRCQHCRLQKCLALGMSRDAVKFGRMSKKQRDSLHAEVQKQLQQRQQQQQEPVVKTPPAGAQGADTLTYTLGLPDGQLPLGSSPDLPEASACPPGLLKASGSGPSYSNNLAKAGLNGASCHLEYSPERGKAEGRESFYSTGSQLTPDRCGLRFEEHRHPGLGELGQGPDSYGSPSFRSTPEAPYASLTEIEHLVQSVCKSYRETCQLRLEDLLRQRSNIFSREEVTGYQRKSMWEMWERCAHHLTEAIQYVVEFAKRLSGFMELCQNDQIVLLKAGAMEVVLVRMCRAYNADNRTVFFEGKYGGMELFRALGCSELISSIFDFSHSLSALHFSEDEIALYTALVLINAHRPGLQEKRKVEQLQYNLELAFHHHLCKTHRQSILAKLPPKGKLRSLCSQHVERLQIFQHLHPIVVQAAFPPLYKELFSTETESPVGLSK
Experiment: Displacement of fluorescein-labeled 25-hydroxycholesterol from human N-terminal 6xHis-tagged ROR gamma LBD (residues 262 to 518) expressed in Escherichia coli BL21-CodonPlus(DE3)-RIL cells by fluorescence polarization assay

IC50: 4 µM
Structure (SMILES): C[C@H]1O[C@@H](O[C@H]2[C@@H](O)C[C@H](O[C@H]3[C@@H](O)C[C@H](O[C@H]4CC[C@@]5(C)[C@H](CC[C@@H]6[C@@H]5C[C@@H](O)[C@]5(C)[C@@H](C7=CC(=O)OC7)CC[C@]65O)C4)O[C@@H]3C)O[C@@H]2C)C[C@H](O)[C@@H]1O [DIGOXIN]
